In the NIST ThermoML archive (doi:10.1016/j.jct.2014.04.011):
± gives the expanded uncertainty stated by the source.

What was measured:
[1] = Crystal; DTA
[2] = Molar enthalpy of transition or fusion; details: Crystal; DSC

Triple point temperature [1]: 372 ± 0.7 K | Molar enthalpy of transition or fusion [2]: 6.93 ± 0.239 kcal/mol
SMILES: CC(C)(C)C(=O)C(Oc1ccc(Cl)cc1)n1ccnc1 (configuration not stated) [1-(4-Chlorophenoxy)-1-(imidazol-1-yl)-3,3-dimethylbutanone]
